PMC5784245, “An Optimized Synthetic-Bioinformatic Natural Product Antibiotic Sterilizes Multidrug-Resistant Acinetobacter baumannii-Infected Wounds” (mSphere, 2018)
In brackets after ≈: the same amount, converted by molar mass. Like-named read-outs stand apart in the source and are kept apart here. Non-standard residues stand in square brackets, D forms with d. Residues, ends and D or L forms follow the SMILES beside them. *: point of attachment. Decanoyl = CCCCCCCCCC(=O)*; dOrn = NCCC[C@@H](N)C(=O)O; Orn = NCCC[C@H](N)C(=O)O

Key:
[1] = tested on: Bacillus subtilis; type: cell-based; details: 24 h
Experimental: (§1) Wang resins were purchased from Matrix Innovation. Reagents for peptide synthesis were purchased from P3 BioSystems, Chempep, and Chem-Impex International. The fluorescent dyes DiBAC4 and SYTOX were purchased from Thermo Fisher Scientific, and media were prepared from premixed powders: brain heart infusion for S. sobrinus and L. rhamnosus (Hardy Diagnostics), yeast extract-peptone-dextrose for C. albicans, lysogeny broth (LB) for all other bacteria (BD Biosciences), and McCoy’s 5A medium with 10% fetal bovine serum for HT-29 cells (American Type Culture Collection). All other chemicals and consumables were purchased from Sigma-Aldrich and VWR International. Paenimucillin 4F for in vivo studies was purchased from Ontores Biotechnologies as a high-performance liquid chromatography (HPLC)-purified peptide and used as is. Dye assays were performed in a Gen5 microtiter plate reader (Biotek Instruments). Liquid chromatography-mass spectrometry (LC-MS) analyses were performed by using an Acquity system (Waters Corporation).
(§2) Standard susceptibility assays were performed in LB medium in 96-well microtiter plates to determine the MIC by the broth microdilution method in accordance with protocols recommended by Clinical and Laboratory Standards Institute ([35]). Cytotoxicity was assessed using human HT-29 cells based on a similar broth microdilution method ([36]). All assays were performed in duplicate. For the cytotoxicity assay, 5,000 HT-29 cells per well were seeded into a microtiter plate and cultured for 24 h at 37°C in a 5% CO2 atmosphere. Peptides were supplemented at concentrations ranging from 128 to 0.5 μg/ml, and the cells were incubated for another 20 h. Growth media were removed, 3-(4,5-dimethylthiazol-2-yl)-2,5-diphenyltetrazolium bromide (MTT) was added to all wells (220 μl per well at 0.5 mg/ml), the mixture was incubated for 4 h, and then the media were discarded. Cell viability was determined by visual inspection.

[2] = tested on: Acinetobacter baumannii; type: cell-based
Experimental: as §1, §2

[3] = tested on: Lactobacillus rhamnosus; type: cell-based; details: 24 h
Experimental: as §1, §2

[4] = tested on: Enterococcus faecium; type: cell-based
Experimental: as §1, §2

[5] = tested on: Streptococcus sobrinus; type: cell-based; details: 24 h
Experimental: as §1, §2

[6] = tested on: Staphylococcus aureus; type: cell-based; details: 24 h
Experimental: as §1, §2

[7] = tested on: Enterococcus faecalis; type: cell-based; details: 24 h
Experimental: as §1, §2

[8] = tested on: Enterobacter cloacae; type: cell-based; details: 24 h
Experimental: as §1, §2

[9] = tested on: Klebsiella pneumoniae; type: cell-based; details: 24 h
Experimental: as §1, §2

[10] = tested on: Pseudomonas aeruginosa; type: cell-based; details: 24 h
Experimental: as §1, §2

[11] = tested on: MDR A. baumannii strain AB5075; experiment: Rat cutaneous wound model, efficacy; type: in vivo, Sprague-Dawley rats; details: rat wound infected with AB5075 (500 CFU); topical 10 mg/ml twice daily from 0.5 h postinoculation; four wounds, ±1 SD
Experimental: The rat cutaneous wound model was used as described previously ([21]). Protocols for animal studies were approved by the Rutgers University Institutional Animal Care and Use Committee. All animals were humanely euthanized at the study endpoint by following the AVMA Guidelines for the Euthanasia of Animals. Immunocompetent Sprague-Dawley female rats (~200 g) were anesthetized by intraperitoneal injection of 100 mg/kg ketamine plus 10 mg/kg xylazine. Using a 1.0-cm-diameter disposable biopsy punch, two symmetrical wounds were created on the dorsum of each rat. A circular gauze dressing 8 mm in diameter was saturated overnight with either vehicle or 4F at 10 mg/ml in sterile centrifuge tubes. To assess tolerability, the rats were weighed daily and observed for wound healing, behavior changes, and visible adverse drug effects for 5 days. To assess efficacy, A. baumannii strain AB5075 was grown overnight and the culture was diluted to provide the challenge inoculum (500 CFU) as 50 μl of bacterial suspension in 0.9% (wt/vol) NaCl. A circular gauze dressing 8 mm in diameter was saturated overnight with vehicle, tetracycline, or 4F at 10 mg/ml in sterile centrifuge tubes. These saturated dressings were topically applied to the wound site with sterile forceps twice daily, starting at 30 min postinoculation, for 6 days. Rats were observed twice daily for morbidity and possible signs of acute toxicity. Two and four independent cutaneous wounds were tested in tolerability and efficacy assessments, respectively.

[12] = tested on: MDR A. baumannii strain AB5075; experiment: microbe, parasite or virus in culture; type: cell-based, Acinetobacter baumannii; details: Acinetobacter baumannii; MDR strain AB5075; read-out: in vitro MIC, A. baumannii AB5075
Experimental: as §2

[13] = tested on: C. albicans; experiment: Toxicity assessment, MIC against C. albicans; type: cell-based, Candida albicans; details: Brady lab strain; yeast extract-peptone-dextrose; surrogate for cytotoxicity; duplicate
Experimental: as §1, with “Liquid chromatography-mass spectrometry (LC-MS) analyses were performed by using an Acquity system (Waters Corporation).” left out
Standard susceptibility assays were performed in LB medium in 96-well microtiter plates to determine the MIC by the broth microdilution method in accordance with protocols recommended by Clinical and Laboratory Standards Institute ([35]). Cytotoxicity was assessed using human HT-29 cells based on a similar broth microdilution method ([36]). […] Cell viability was determined by visual inspection.

[14] = tested on: A. baumannii clinical isolate 1791; type: cell-based, Acinetobacter baumannii; details: clinical isolate 1791, 24 h
Experimental: as §1, §2

[15] = tested on: A. baumannii clinical isolate 1790; type: cell-based, Acinetobacter baumannii; details: clinical isolate 1790, 24 h
Experimental: as §1, §2

[16] = tested on: A. baumannii clinical isolate 1797; type: cell-based, Acinetobacter baumannii; details: clinical isolate 1797, 24 h
Experimental: as §1, §2

[17] = tested on: A. baumannii clinical isolate 1795; type: cell-based, Acinetobacter baumannii; details: clinical isolate 1795, 24 h
Experimental: as §1, §2

[18] = tested on: A. baumannii clinical isolate S3; type: cell-based, Acinetobacter baumannii; details: clinical isolate S3, 24 h
Experimental: as §1, §2

[19] = tested on: A. baumannii clinical isolate S5; type: cell-based, Acinetobacter baumannii; details: clinical isolate S5, 24 h
Experimental: as §1, §2

[20] = tested on: A. baumannii clinical isolate 1788; type: cell-based, Acinetobacter baumannii; details: clinical isolate 1788, 24 h
Experimental: as §1, §2

Structure (SMILES) | MIC Bacillus subtilis [1] | MIC Lactobacillus rhamnosus [3] | MIC Streptococcus sobrinus [5] | MIC Staphylococcus aureus [6] | MIC Enterococcus faecalis [7] | MIC Acinetobacter baumannii ([2]; 24 h) | MIC Enterococcus faecium ([4]; 24 h) | MIC Enterobacter cloacae [8] | MIC Klebsiella pneumoniae [9] | MIC Pseudomonas aeruginosa [10] | further results
CCCCCCCCCC(=O)N[C@H](Cc1ccccc1)C(=O)N[C@H](CCCN)C(=O)N[C@@H](C(=O)N[C@H](CO)C(=O)N[C@H](Cc1ccccc1)C(=O)N[C@@H](CO)C(=O)N[C@@H](CO)C(=O)N[C@H](CCCN)C(=O)N[C@@H](Cc1ccccc1)C(=O)N[C@@H](CO)C(=O)N[C@H](C(=O)N[C@@H](C(=O)N[C@@H](CCCN)C(=O)O)[C@H](C)CC)C(C)C)[C@H](C)CC [1F, paenimucillin A] (Decanoyl-[dF][dOrn][dI][dS][dF]SS[dOrn]FSV[dI][Orn]-OH) | 4 µg/mL (≈ 2.45 µM) | 16 µg/mL (≈ 9.82 µM) | 2 µg/mL (≈ 1.23 µM) | 16 µg/mL (≈ 9.82 µM) | 32 µg/mL (≈ 19.6 µM) | – | – | – | – | – | MIC Acinetobacter baumannii ([2]; strain ATCC 17978, LB medium, broth microdilution, duplicate): 16 µg/mL (≈ 9.82 µM); MIC Enterococcus faecium ([4]; strain Com15, LB medium, broth microdilution, duplicate): 4 µg/mL (≈ 2.45 µM)
CCCCCCCCCC(=O)N[C@H](Cc1ccccc1)C(=O)N[C@H](CCCN)C(=O)N[C@@H](C(=O)N[C@H](CO)C(=O)N[C@H](Cc1c[nH]c2ccccc12)C(=O)N[C@@H](CO)C(=O)N[C@@H](CO)C(=O)N[C@H](CCCN)C(=O)N[C@@H](Cc1c[nH]c2ccccc12)C(=O)N[C@@H](CO)C(=O)N[C@H](C(=O)N[C@@H](C(=O)N[C@@H](CCCN)C(=O)O)[C@H](C)CC)C(C)C)[C@H](C)CC [1W, paenimucillin B] (Decanoyl-[dF][dOrn][dI][dS][dW]SS[dOrn]WSV[dI][Orn]-OH) | 16 µg/mL (≈ 9.37 µM) | 2 µg/mL (≈ 1.17 µM) | 1 µg/mL (≈ 0.585 µM) | 64 µg/mL (≈ 37.5 µM) | 128 µg/mL (≈ 74.9 µM) | 128 µg/mL (≈ 74.9 µM) | 4 µg/mL (≈ 2.34 µM) | – | – | – | –
CC[C@@H](C)[C@@H](NC(=O)[C@@H](NC(=O)[C@H](CO)NC(=O)[C@H](Cc1c[nH]c2ccccc12)NC(=O)[C@@H](CCCN)NC(=O)[C@H](CO)NC(=O)[C@H](CO)NC(=O)[C@@H](Cc1c[nH]c2ccccc12)NC(=O)[C@@H](CO)NC(=O)[C@H](NC(=O)[C@@H](CCCN)NC(=O)[C@H](N)Cc1ccccc1)[C@H](C)CC)C(C)C)C(=O)N[C@@H](CCCN)C(=O)O [5W] (H-[dF][dOrn][dI][dS][dW]SS[dOrn]WSV[dI][Orn]-OH) | 2 µg/mL (≈ 1.29 µM) | 4 µg/mL (≈ 2.57 µM) | 4 µg/mL (≈ 2.57 µM) | 8 µg/mL (≈ 5.15 µM) | 4 µg/mL (≈ 2.57 µM) | 4 µg/mL (≈ 2.57 µM) | 8 µg/mL (≈ 5.15 µM) | 4 µg/mL (≈ 2.57 µM) | 4 µg/mL (≈ 2.57 µM) | 16 µg/mL (≈ 10.3 µM) | –
CC[C@@H](C)[C@@H](NC(=O)[C@@H](NC(=O)[C@H](CO)NC(=O)[C@H](Cc1ccccc1)NC(=O)[C@@H](CCCN)NC(=O)[C@H](CO)NC(=O)[C@H](CO)NC(=O)[C@@H](Cc1ccccc1)NC(=O)[C@@H](CO)NC(=O)[C@H](NC(=O)[C@@H](CCCN)NC(=O)[C@H](N)Cc1ccccc1)[C@H](C)CC)C(C)C)C(=O)N[C@@H](CCCN)C(=O)O [5F] (H-[dF][dOrn][dI][dS][dF]SS[dOrn]FSV[dI][Orn]-OH) | 16 µg/mL (≈ 10.8 µM) | 128 µg/mL (≈ 86.7 µM) | 64 µg/mL (≈ 43.4 µM) | 64 µg/mL (≈ 43.4 µM) | 32 µg/mL (≈ 21.7 µM) | 32 µg/mL (≈ 21.7 µM) | 32 µg/mL (≈ 21.7 µM) | 8 µg/mL (≈ 5.42 µM) | 4 µg/mL (≈ 2.71 µM) | 64 µg/mL (≈ 43.4 µM) | –
CN(C)[C@@H]1C(O)=C(C(N)=O)C(=O)[C@@]2(O)C(O)=C3C(=O)c4c(O)cccc4[C@@](C)(O)[C@H]3C[C@@H]12 [tetracycline, reference compound] | – | – | – | – | – | – | – | – | – | – | bacterial burden of wound, day 3 [11]: 6.4 ± 0.31 log CFU; MIC [12]: 0.25 µg/mL (≈ 0.563 µM)
CC[C@@H](C)[C@@H](NC(=O)[C@@H](NC(=O)[C@H](CO)NC(=O)[C@H](Cc1c[nH]c2ccccc12)NC(=O)[C@@H](CCCN)NC(=O)[C@H](CO)NC(=O)[C@H](CO)NC(=O)[C@@H](Cc1c[nH]c2ccccc12)NC(=O)[C@@H](CO)NC(=O)[C@H](NC(=O)[C@@H](CCCN)NC(=O)[C@@H](Cc1ccccc1)NC(C)=O)[C@H](C)CC)C(C)C)C(=O)N[C@@H](CCCN)C(=O)O [4W] (Ac-[dF][dOrn][dI][dS][dW]SS[dOrn]WSV[dI][Orn]-OH) | 1 µg/mL (≈ 0.627 µM) | 2 µg/mL (≈ 1.25 µM) | 2 µg/mL (≈ 1.25 µM) | 4 µg/mL (≈ 2.51 µM) | 4 µg/mL (≈ 2.51 µM) | 1 µg/mL (≈ 0.627 µM) | 32 µg/mL (≈ 20.1 µM) | 2 µg/mL (≈ 1.25 µM) | 2 µg/mL (≈ 1.25 µM) | 16 µg/mL (≈ 10 µM) | MIC, toxicity assessment, C. albicans [13]: 128 µg/mL (≈ 80.2 µM); MIC for A. baumannii clinical isolate 1791 [14]: 0.5 µg/mL; MIC for A. baumannii clinical isolate 1790 [15]: 0.5 µg/mL; MIC for A. baumannii clinical isolate 1797 [16]: 2 µg/mL; MIC for A. baumannii clinical isolate 1795 [17]: 2 µg/mL; MIC for A. baumannii clinical isolate S3 [18]: 4 µg/mL; MIC for A. baumannii clinical isolate S5 [19]: 4 µg/mL; MIC for A. baumannii clinical isolate 1788 [20]: 2 µg/mL
